In article PMC8419314, “Characterization of Compound-Specific, Concentration-Independent Biophysical Properties of Sodium Channel Inhibitor Mechanism of Action Using Automated Patch-Clamp Electrophysiology” (Frontiers in Pharmacology, 2021):
Values joined by “and” are separate entries in the source; they are usually repeats but may differ in a detail not shown here. Identical values can stand only once. Like-named read-outs stand apart in the source and are kept apart here.

Key:
rNaV1.4 channel [1] = target: T1, rNaV1.4 channel (Rattus norvegicus, UniProt P15390); experiment: automated patch-clamp 17-pulse protocol (SDO, RFI, SSI), IonFlux Mercury, cell ensembles; format: cell-based; conditions: for Ki: inactivated-state affinity, calculated with equation of Bean et al. (1983)
T1 construct: expressed in transfected cells; host or cells: HEK 293
Experimental: Cell culture and electrophysiology were done as described in the accompanying paper ([Lukacs et al., 2021]). The recombinant rNaV1.4 channel-expressing cell line was generated as described before ([Lukacs et al., 2018]). Transfected HEK 293 cells were maintained in Dulbecco’s Modified Eagle Medium, high glucose supplemented with 10% v/v fetal bovine serum, 100 U/ml of penicillin/streptomycin, and 0.4 mg/ml Geneticin (Life Technologies, Carlsbad, CA). For experiments, cells were dissociated from culture dishes with Accutase (Corning), shaken in serum-free medium for 60 min at room temperature, then centrifuged, and resuspended into the extracellular solution to a concentration of 5 × 10^6 cells/mL. Voltage-clamp recordings were performed on an IonFlux Mercury instrument (Fluxion Biosciences). The composition of solutions (in mM) was: Intracellular solution: 50 CsCl, 10 NaCl, 60 CsF, 20 EGTA, and 10 HEPES; pH 7.2 (adjusted with 1 M CsOH). Extracellular solution: 140 NaCl, 4 KCl, 1 MgCl2, 2 CaCl2, 5 D-Glucose, and 10 HEPES; pH 7.4 (adjusted with 1 M NaOH). The osmolality of intra-and extracellular solutions was set to ∼320 and ∼330 mOsm, respectively. Data were sampled at 20 kHz, and filtered at 10 kHz. Experiments were carried out at room temperature.
Each zone consists of 8 separate sections, which are distinct functional units, containing 12 wells: one well for the cell suspension, one well for the waste, two cell “traps” (intracellular solution-filled wells under negative pressure to establish high resistance seals and then whole-cell configuration), and eight compound wells. […] Two kinds of microfluidic plates are manufactured: In single-cell plates, each cell trap contains a single hole and therefore catches a single cell. In “ensemble plates” there are 20 holes in each cell trap, and 20 cells are recorded simultaneously. […] From the 16 cell ensembles of each zone, we chose n = 6 ensembles for analysis.
We used a complex 17-pulse voltage protocol (Figure 1A), described in detail in the accompanying paper ([Lukacs et al., 2021]), which allowed the assessment of gating kinetics and gating equilibrium in the absence and the presence of inhibitor/modulator compounds. The protocol investigated the effect of different durations of depolarizations: 2.5, 7.5, 22.5, and 67.5 ms with 2.5 ms hyperpolarizing gaps between them; this section (pulses #1 to #5) is shown by different shades of green in Figure 1, and was named “state-dependent onset” (SDO). Next, pulses #6 to #12, as well as #1 investigated the effect of different durations of hyperpolarizations (1, 2, 4, 8, 16, 32, 64, and 498 ms, separated by 5 ms depolarizations) in the section shown by different shades of blue, and named “recovery from inactivation” (RFI). Finally, pulses #12 to #17 assessed the resting-inactivated equilibrium at different membrane potentials in the section named “steady-state inactivation” (SSI). The three sections were similar to protocols we used in previous studies ([Lukacs et al., 2018]; [Földi et al., 2021]).
In addition to automatic fitting, described in the accompanying paper ([Lukacs et al., 2021]), in this study we used a different approach to process SDO, RFI, and SSI data. This analysis focused on deriving compound-specific but concentration-independent descriptors of the mechanism of action, which can lead to a more thorough understanding of the sub-processes involved in drug action, and which can later serve as a basis for constructing kinetic models for the simulation of drug-specific effects. All data analysis was done in Microsoft Excel (RRID:SCR_016137) environment, using VBA routines to accelerate repetitive data management tasks. For each of the 17 pulses peak amplitudes were measured after removing capacitive artifacts and subtracting the leak.

sodium channel [2] = target: sodium channel; design: method as in Lenkey et al., 2010; conditions: resting-state; ref Lenkey et al., 2010; read-out: KR; cited from earlier work
rNaV1.4 channel [3] = target: T1, rNaV1.4 channel; experiment: automated patch-clamp 17-pulse protocol (SDO, RFI, SSI), IonFlux Mercury, cell ensembles; format: cell-based; conditions: pulse #5, SDO section; read-out: IC50 #5 (after 65.7 ms depol.)
sodium channel [4] = target: sodium channel; design: method as in Vladimirov et al., 2000; conditions: resting-state; ref Vladimirov et al., 2000; read-out: KR; cited from earlier work
sodium channel [5] = conditions: from 10 Hz to 50 Hz; ref Desaphy et al. (2014); cited from earlier work
[6] = 1st pulse-evoked current, resting-state estimate, n = 6 ensembles, read-out: IC50 #1 (estimated KR)
[7] = pulse #7, RFI section, read-out: IC50 #7 (after 1 ms hyperpol.)
[8] = pulse #17, SSI section, read-out: IC50 #17 (−70 mV)
[9] = time range within which effective inhibitor potency changes upon depolarization
[10] = time range within which effective inhibitor potency changes upon hyperpolarization

T1 sequence (P15390 whole entry): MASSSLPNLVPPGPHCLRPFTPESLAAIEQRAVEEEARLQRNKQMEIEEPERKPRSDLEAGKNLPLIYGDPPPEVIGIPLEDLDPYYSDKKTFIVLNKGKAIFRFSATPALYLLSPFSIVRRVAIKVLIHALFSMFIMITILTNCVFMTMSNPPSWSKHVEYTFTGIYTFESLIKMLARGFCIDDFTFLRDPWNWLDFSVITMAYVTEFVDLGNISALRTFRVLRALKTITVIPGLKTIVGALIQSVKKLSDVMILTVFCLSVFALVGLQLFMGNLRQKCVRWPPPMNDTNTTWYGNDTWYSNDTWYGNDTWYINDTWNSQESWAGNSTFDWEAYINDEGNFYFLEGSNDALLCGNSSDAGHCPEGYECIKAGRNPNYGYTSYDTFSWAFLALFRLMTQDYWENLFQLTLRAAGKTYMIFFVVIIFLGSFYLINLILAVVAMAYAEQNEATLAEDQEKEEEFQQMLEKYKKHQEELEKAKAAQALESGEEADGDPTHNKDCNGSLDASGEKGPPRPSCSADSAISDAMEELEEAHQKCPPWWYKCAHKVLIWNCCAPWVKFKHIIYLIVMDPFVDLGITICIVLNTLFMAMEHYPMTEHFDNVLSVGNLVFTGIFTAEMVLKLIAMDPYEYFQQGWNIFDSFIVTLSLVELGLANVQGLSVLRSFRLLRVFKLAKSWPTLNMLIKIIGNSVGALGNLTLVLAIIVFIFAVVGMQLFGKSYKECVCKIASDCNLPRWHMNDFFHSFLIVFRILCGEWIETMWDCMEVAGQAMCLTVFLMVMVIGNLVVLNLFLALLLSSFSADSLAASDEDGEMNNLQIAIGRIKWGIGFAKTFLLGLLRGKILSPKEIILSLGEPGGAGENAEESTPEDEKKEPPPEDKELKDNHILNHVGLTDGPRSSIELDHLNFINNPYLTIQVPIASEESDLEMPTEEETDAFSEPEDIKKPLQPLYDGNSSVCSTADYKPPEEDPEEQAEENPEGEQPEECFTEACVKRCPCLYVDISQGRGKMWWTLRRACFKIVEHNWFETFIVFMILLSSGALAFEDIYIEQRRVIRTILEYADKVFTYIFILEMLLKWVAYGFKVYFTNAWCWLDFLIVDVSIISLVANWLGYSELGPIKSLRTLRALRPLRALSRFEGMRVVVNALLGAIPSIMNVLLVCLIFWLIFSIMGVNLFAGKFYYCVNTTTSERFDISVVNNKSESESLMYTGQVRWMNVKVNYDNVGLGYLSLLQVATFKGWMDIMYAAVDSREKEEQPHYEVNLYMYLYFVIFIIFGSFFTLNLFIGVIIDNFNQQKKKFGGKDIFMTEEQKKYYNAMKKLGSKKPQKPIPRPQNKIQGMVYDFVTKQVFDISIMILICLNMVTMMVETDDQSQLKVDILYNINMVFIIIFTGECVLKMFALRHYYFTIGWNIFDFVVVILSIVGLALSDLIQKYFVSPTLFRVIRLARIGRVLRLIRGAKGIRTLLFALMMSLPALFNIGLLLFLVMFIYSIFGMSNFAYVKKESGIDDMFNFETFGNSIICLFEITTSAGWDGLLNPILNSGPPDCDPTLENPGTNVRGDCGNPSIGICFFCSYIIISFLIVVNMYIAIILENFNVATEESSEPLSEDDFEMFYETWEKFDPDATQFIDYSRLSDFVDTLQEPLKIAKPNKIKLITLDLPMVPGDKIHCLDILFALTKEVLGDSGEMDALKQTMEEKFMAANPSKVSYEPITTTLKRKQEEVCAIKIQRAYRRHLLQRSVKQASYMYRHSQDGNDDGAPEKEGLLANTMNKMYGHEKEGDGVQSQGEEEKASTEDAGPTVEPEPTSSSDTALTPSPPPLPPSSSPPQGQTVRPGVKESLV

Q: For `CCCCN1CCCCC1C(=O)Nc1c(C)cccc1C` (stereo not shown) [Bupivacaine, bupivacaine], which IC50 (rNaV1.4 channel [1]; [6]) is on record?
A: 94.6 ± 10.7 µM

Q: What about the Ki (rNaV1.4 channel [1]) of the same compound?
A: 12.7 ± 1.22 µM

Q: And the macro-offset time constant (rNaV1.4 channel [1]; offset upon drug washout)?
A: 3.56 ± 0.43 s

Q: And the macro-offset time constant (rNaV1.4 channel [1]; offset upon drug washout, listed as bupivacaine)?
A: 3.56 s

Q: What about the IC50 (rNaV1.4 channel [1]; [7]) of the same compound?
A: 33.5 ± 2.32 µM

Q: What about the IC50 (rNaV1.4 channel [1]; [8]) of the same compound?
A: 16.3 ± 1.7 µM

Q: What about the KR/KI ratio (rNaV1.4 channel [1]; state-dependence) of the same compound?
A: 7.48 ± 0.68

Q: What about the KR/KI ratio (rNaV1.4 channel [1]; state-dependence, listed as bupivacaine) of the same compound?
A: 7.48

Q: And the micro-onset range (rNaV1.4 channel [1]; [9])?
A: 100–1,000 ms

Q: What about the micro-offset range (rNaV1.4 channel [1]; [10]) of the same compound?
A: 100–1,000 ms

Q: What about the Kd (sodium channel [2]) of the same compound?
A: ~619 µM

Q: What about the IC50 (rNaV1.4 channel [3]) of the same compound?
A: 27.3 ± 1.45 µM

Q: What about the Kd (sodium channel [4]) of the same compound?
A: ~317 µM

Q: For `CCOC(=O)c1ccc(N)cc1` [Benzocaine, benzocaine], which “fraction of channels inhibited” value (rNaV1.4 channel [1]; 100 µM, indicated by KI calculated from SSI data) is on record?
A: more than half

Q: And the IC50 (rNaV1.4 channel [1]; [6])?
A: 2240 µM

Q: What about the channels recovered (rNaV1.4 channel [1]; at 2 ms gap duration) of the same compound?
A: 70–90%

Q: And the Ki (rNaV1.4 channel [1])?
A: 79.4 ± 3.9 µM

Q: And the “time for micro-offset to be complete” value (rNaV1.4 channel [1]; offset of effect upon hyperpolarization)?
A: ≤ 4 ms

Q: And the macro-offset time constant (rNaV1.4 channel [1]; offset upon drug washout)?
A: 1.42 ± 0.59 s

Q: What about the “time for micro-onset to be complete” value (rNaV1.4 channel [1]; onset of effect upon depolarization) of the same compound?
A: ≤ 2.5 ms

Q: And the IC50 (rNaV1.4 channel [1]; [7])?
A: 290 ± 22.3 µM

Q: What about the IC50 (rNaV1.4 channel [1]; [8]) of the same compound?
A: 170 ± 10.3 µM

Q: And the KR/KI ratio (rNaV1.4 channel [1]; state-dependence)?
A: 28.3 ± 3.8

Q: What about the KR/KI ratio (rNaV1.4 channel [1]; state-dependence, listed as benzocaine) of the same compound?
A: 28.3

Q: And the micro-onset range (rNaV1.4 channel [1]; [9])?
A: 0.1 to 2 ms

Q: What about the micro-offset range (rNaV1.4 channel [1]; [10]) of the same compound?
A: 0.1 to 4 ms

Q: And the IC50 (rNaV1.4 channel [3])?
A: 1300 µM

Q: Which KR/KI ratio (rNaV1.4 channel [1]) does the source give for `NC1=N[C@H](O)[C@H]2[C@H]3O[C@]4(O)O[C@@H]([C@@H](O)[C@@]2(N1)[C@@H]4O)[C@]3(O)CO` [Tetrodotoxin, tetrodotoxin] here?
A: 1.7 ± 0.11

Q: And the “extent of change of EIP during SDO, RFI and SSI sections” value (rNaV1.4 channel [1])?
A: less than 2 fold

Q: And the macro-offset time constant (rNaV1.4 channel [1])?
A: 22.9 ± 1.50 s

Q: And the micro-offset range (rNaV1.4 channel [1])?
A: 1 to 10 ms

Q: What about the micro-onset range (rNaV1.4 channel [1]) of the same compound?
A: 1 to 100 ms

Q: And the IC50 (rNaV1.4 channel [1]; read-out: IC50 #1 (estimated KR))?
A: 0.028 µM

Q: And the IC50 (rNaV1.4 channel [1]; read-out: IC50 #5 (after 65.7 ms depol.))?
A: 0.015 µM

Q: What about the IC50 (rNaV1.4 channel [1]; read-out: IC50 #7 (after 1 ms hyperpol.)) of the same compound?
A: 0.018 µM

Q: What about the IC50 (rNaV1.4 channel [1]; read-out: IC50 #17 (−70 mV)) of the same compound?
A: 0.018 µM

Q: Which results are given for `CCN(CC)CC(=O)Nc1c(C)cccc1C` [Lidocaine, lidocaine]?
A: KR/KI ratio (rNaV1.4 channel [1]): 69.7 and 69.7 ± 20.9; macro-offset time constant (rNaV1.4 channel [1]): 1.72 ± 0.05 s; micro-offset range (rNaV1.4 channel [1]): 10 to 500 ms; micro-onset range (rNaV1.4 channel [1]): 1 to 100 ms; time for micro-onset to be complete (rNaV1.4 channel [1]): more than 100 ms; IC50 (rNaV1.4 channel [1]; [6]): 1280 µM; Ki (rNaV1.4 channel [1]): 18.4 ± 1.52 µM; IC50 (rNaV1.4 channel [1]; [7]): 71.7 ± 5.83 µM; IC50 (rNaV1.4 channel [1]; [8]): 22.8 ± 2.04 µM; IC50 (rNaV1.4 channel [3]): 31.9 ± 2.28 µM

Q: For `Nc1nc2ccc(OC(F)(F)F)cc2s1` [Riluzole, riluzole], which “increase of apparent affinity” value (sodium channel [5]) is on record?
A: 48 fold

Q: And the “inhibition, pulses #1, #6 and #12” value (rNaV1.4 channel [1]; 100 µM, single cell ensemble)?
A: no inhibition

Q: What about the “inhibition, pulses #7 and #17” value (rNaV1.4 channel [1]; 100 µM, single cell ensemble) of the same compound?
A: almost full inhibition

Q: And the IC50 (rNaV1.4 channel [1]; [6])?
A: 1360 µM

Q: And the Ki (rNaV1.4 channel [1])?
A: 5.63 ± 3.35 µM

Q: What about the macro-offset time constant (rNaV1.4 channel [1]; offset upon drug washout) of the same compound?
A: 13.6 ± 0.71 s

Q: And the IC50 (rNaV1.4 channel [1]; [7])?
A: 42.1 ± 3.62 µM

Q: And the IC50 (rNaV1.4 channel [1]; [8])?
A: 6.86 ± 4.36 µM

Q: And the IC50 (rNaV1.4 channel [3])?
A: 27.4 ± 6.44 µM
